Measured values taken from the NIST ThermoML archive (doi:10.1016/j.jct.2005.06.015).

Columns and labels:
[1] = 101 kPa, Liquid
[2] = refractive index (Na D-line) (dimensionless); conditions: 101.33 kPa, Liquid, Standard Abbe refractometry
[3] = xn = mol fraction of the nth substance listed; conditions: 101 kPa, Liquid
[4] = refractive index (Na D-line) (dimensionless); xn = mol fraction of the nth substance listed; conditions: 101 kPa, Liquid, Standard Abbe refractometry

ClC(Cl)C(Cl)Cl [1,1,2,2-tetrachloroethane]
Conditions | mass density, [1] [kg/m3] | refractive index, [2]
293.15 K | 1594.27 | 1.49387
303.15 K | 1574.85 | 1.48887

ClC(Cl)C(Cl)Cl [1,1,2,2-tetrachloroethane] + CCCCCCCCCCO
Conditions | mass density, [3] [kg/m3] | refractive index, [4]
293.15 K, x1 = 0.1023 | 874.88 | 1.44019
293.15 K, x1 = 0.2004 | 922 | 1.44342
293.15 K, x1 = 0.3006 | 974.95 | 1.44704
293.15 K, x1 = 0.4005 | 1033.5 | 1.45108
293.15 K, x1 = 0.5009 | 1099.29 | 1.45575
293.15 K, x1 = 0.6001 | 1172.37 | 1.46097
293.15 K, x1 = 0.6999 | 1255.81 | 1.46711
293.15 K, x1 = 0.8 | 1351.62 | 1.47434
293.15 K, x1 = 0.901 | 1464.04 | 1.48303
293.15 K, x1 = 1 | 1594.27 | 1.49387
303.15 K, x1 = 0.1023 | 867.03 | 1.43656
303.15 K, x1 = 0.2004 | 913.42 | 1.43969
303.15 K, x1 = 0.3006 | 965.57 | 1.44313
303.15 K, x1 = 0.4005 | 1023.2 | 1.44706
303.15 K, x1 = 0.5009 | 1087.89 | 1.45152
303.15 K, x1 = 0.6001 | 1159.72 | 1.45665
303.15 K, x1 = 0.6999 | 1241.75 | 1.46263
303.15 K, x1 = 0.8 | 1336.02 | 1.46974
303.15 K, x1 = 0.901 | 1446.7 | 1.47826
303.15 K, x1 = 1 | 1574.85 | 1.48887

ClC(Cl)C(Cl)Cl [1,1,2,2-tetrachloroethane] + CCCCCCCCO
Conditions | mass density, [3] [kg/m3] | refractive index, [4]
293.15 K, x1 = 0.1028 | 879.91 | 1.43403
293.15 K, x1 = 0.1967 | 933.27 | 1.43826
293.15 K, x1 = 0.2997 | 995.8 | 1.44321
293.15 K, x1 = 0.4005 | 1061.47 | 1.44845
293.15 K, x1 = 0.501 | 1132.1 | 1.45416
293.15 K, x1 = 0.6 | 1207.5 | 1.46034
293.15 K, x1 = 0.6999 | 1290.57 | 1.46723
293.15 K, x1 = 0.7998 | 1381.66 | 1.47492
293.15 K, x1 = 0.9007 | 1483.42 | 1.48379
293.15 K, x1 = 1 | 1594.27 | 1.49387
303.15 K, x1 = 0.1028 | 872.01 | 1.43011
303.15 K, x1 = 0.1967 | 924.42 | 1.43419
303.15 K, x1 = 0.2997 | 985.92 | 1.43892
303.15 K, x1 = 0.4005 | 1050.64 | 1.44404
303.15 K, x1 = 0.501 | 1120.29 | 1.44968
303.15 K, x1 = 0.6 | 1194.6 | 1.45579
303.15 K, x1 = 0.6999 | 1276.31 | 1.46262
303.15 K, x1 = 0.7998 | 1365.71 | 1.47026
303.15 K, x1 = 0.9007 | 1465.56 | 1.47898
303.15 K, x1 = 1 | 1574.85 | 1.48887

ClC(Cl)C(Cl)Cl [1,1,2,2-tetrachloroethane] + CCCCCCCO
Conditions | mass density, [3] [kg/m3] | refractive index, [4]
293.15 K, x1 = 0.1022 | 883.03 | 1.42952
293.15 K, x1 = 0.1995 | 943.76 | 1.43494
293.15 K, x1 = 0.3002 | 1009.72 | 1.4406
293.15 K, x1 = 0.4008 | 1079.02 | 1.44661
293.15 K, x1 = 0.5001 | 1151.23 | 1.45297
293.15 K, x1 = 0.599 | 1227.43 | 1.45976
293.15 K, x1 = 0.6996 | 1310.04 | 1.46717
293.15 K, x1 = 0.7999 | 1398.24 | 1.47525
293.15 K, x1 = 0.9015 | 1494.17 | 1.48421
293.15 K, x1 = 1 | 1594.27 | 1.49387
303.15 K, x1 = 0.1022 | 875.27 | 1.42581
303.15 K, x1 = 0.1995 | 934.97 | 1.43106
303.15 K, x1 = 0.3002 | 999.87 | 1.43653
303.15 K, x1 = 0.4008 | 1068.12 | 1.44244
303.15 K, x1 = 0.5001 | 1139.25 | 1.44861
303.15 K, x1 = 0.599 | 1214.28 | 1.45521
303.15 K, x1 = 0.6996 | 1295.52 | 1.46254
303.15 K, x1 = 0.7999 | 1382.11 | 1.4705
303.15 K, x1 = 0.9015 | 1476.3 | 1.47937
303.15 K, x1 = 1 | 1574.85 | 1.48887
